Results from patent US12329745B2, “Methods and compositions for treating glucocorticoid excess” (Sparrow Pharmaceuticals, Inc., priority 2022, dated 2025).
Marks after values point to notes of the source that are not given here.

System: C57BL/6 male mice
Test: Mitigation of corticosterone (CORT) adverse effects in mouse
Assay type: in vivo
Set-up: food consumption, group Mean: unit not given here
Description: A control group received no CORT or SPI-62. Body weight was assessed daily and food consumption twice weekly. Whole body muscle and fat amounts were measured at Days 0, 14, and 28 using an EchoMRI-130H body composition analyzer. Blood samples for fasting glucose and insulin were obtained at Days 1 (pre-dose), 15, 29, and 35. An open field test was conducted on Day 22. A grip strength test was performed on Day 28. After sacrifice on Day 36, gonadal, subcutaneous, retroperitoneal, and mesenteric fat, quadriceps, and tibialis anterior were dissected and weighed, and skin was formalin fixed and paraffin embedded.

[1] = 10 mg/kg QD + CORT, post-mortem Day 36

Compound: Cn1c(-c2ccc(C(N)=O)cc2F)nnc1C(C)(C)Oc1c(F)cc(Cl)cc1F [SPI-62, 4-(5-(2-(4-chloro-2,6-difluorophenoxy)propan-2-yl)-4-methyl-4H-1,2,4-triazol-3-yl)-3-fluorobenzamide]
- HOMA-IR LSM (10 mg/kg QD + CORT, Day 15): 1.41^b mmol glucose/μU insulin
- Whole-body fat content LSM (10 mg/kg QD + CORT, Day 28): 0.115^ab
- Whole-body muscle content LSM (10 mg/kg QD + CORT, Day 28): 0.80^b
- HOMA-IR LSM (10 mg/kg QD + CORT, Day 29): 1.88^ab mmol glucose/μU insulin
- HOMA-IR LSM (10 mg/kg QD + CORT, Day 35): 2.28^b mmol glucose/μU insulin
- Fat depot weight, Gonadal, Mean [1]: 8.44 mg/g body weight
- Fat depot weight, Mesenteric, Mean [1]: 6.23 mg/g body weight
- Fat depot weight, Retroperitoneal, Mean [1]: 2.40 mg/g body weight
- Fat depot weight, Subcutaneous, Mean [1]: 3.35 mg/g body weight
- Muscle weight, Quadriceps, Mean [1]: 5.33 mg/g body weight
- Muscle weight, Tibialis anterior, Mean [1]: 2.14 mg/g body weight
- body weight, group Mean (1 mpk QD + CORT, Baseline): 22.1 g
- food consumption, group Mean (1 mpk QD + CORT, Day 4): 3.26
- food consumption, group Mean (1 mpk QD + CORT, Day 8): 2.92
- food consumption, group Mean (1 mpk QD + CORT, Day 11): 3.09
- body weight, group Mean (1 mpk QD + CORT, Day 15): 21.9 g
- food consumption, group Mean (1 mpk QD + CORT, Day 15): 3.04
- food consumption, group Mean (1 mpk QD + CORT, Day 18): 2.91
- food consumption, group Mean (1 mpk QD + CORT, Day 22): 3.23
- food consumption, group Mean (1 mpk QD + CORT, Day 25): 3.74
- body weight, group Mean (1 mpk QD + CORT, Day 29): 23.2 g
- food consumption, group Mean (1 mpk QD + CORT, Day 29): 2.90
- food consumption, group Mean (1 mpk QD + CORT, Day 32): 2.77
- body weight, group Mean (1 mpk QD + CORT, Day 35): 23.8 g
- food consumption, group Mean (1 mpk QD + CORT, Day 36): 3.13
- body weight, group Mean (10 mpk BID + CORT, Baseline): 22.1 g
- food consumption, group Mean (10 mpk BID + CORT, Day 4): 3.36
- food consumption, group Mean (10 mpk BID + CORT, Day 8): 2.88
- food consumption, group Mean (10 mpk BID + CORT, Day 11): 2.92
- body weight, group Mean (10 mpk BID + CORT, Day 15): 21.5 g
- food consumption, group Mean (10 mpk BID + CORT, Day 15): 2.74
- food consumption, group Mean (10 mpk BID + CORT, Day 18): 3.36
- food consumption, group Mean (10 mpk BID + CORT, Day 22): 2.89
- food consumption, group Mean (10 mpk BID + CORT, Day 25): 3.13
- body weight, group Mean (10 mpk BID + CORT, Day 29): 21.7 g
- food consumption, group Mean (10 mpk BID + CORT, Day 29): 2.79
- food consumption, group Mean (10 mpk BID + CORT, Day 32): 3.27
- body weight, group Mean (10 mpk BID + CORT, Day 35): 21.8 g
- food consumption, group Mean (10 mpk BID + CORT, Day 36): 2.83
- body weight, group Mean (10 mpk QD + CORT, Baseline): 22 g
- food consumption, group Mean (10 mpk QD + CORT, Day 4): 3.37
- food consumption, group Mean (10 mpk QD + CORT, Day 8): 2.98
- food consumption, group Mean (10 mpk QD + CORT, Day 11): 3.11
- body weight, group Mean (10 mpk QD + CORT, Day 15): 21.4 g
- food consumption, group Mean (10 mpk QD + CORT, Day 15): 2.91
- food consumption, group Mean (10 mpk QD + CORT, Day 18): 3.08
- food consumption, group Mean (10 mpk QD + CORT, Day 22): 3.15
- food consumption, group Mean (10 mpk QD + CORT, Day 25): 3.50
- body weight, group Mean (10 mpk QD + CORT, Day 29): 22.2 g
- food consumption, group Mean (10 mpk QD + CORT, Day 29): 2.99
- food consumption, group Mean (10 mpk QD + CORT, Day 32): 3.00
- body weight, group Mean (10 mpk QD + CORT, Day 35): 22.8 g
- food consumption, group Mean (10 mpk QD + CORT, Day 36): 3.24
- CORT effects on dermal thickness and structure (35 days, FIG. 12): less prominent
- effect in the open field test (Day 22): No effect
- CORT adverse effect of grip strength reduction (Day 28): prevented
